{
  "source": "PubChem BioAssay AID1845219",
  "about": "(Molecular Pharmacology Branch, DTP, NCI, 2023)",
  "system": "SYO-1 tumor spheroids, viability % test/control",
  "assay": "Anticancer human tumor SYO-1 cell line growth inhibition;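 further: spheroids exposed to agents for 7 days before viability read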;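 on viability, T/C: 100% = DMSO vehicle control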",
  "details": "spheroids with HUVEC and MSC; for IC50: curve of first compound; for viability, T/C: stronger effect = lower value",
  "outline": "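Complex spheroids of malignant cells with endothelial cells and mesenchymal stem cells; agents alone or combined, from near clinical Cmax (or 10 microM if unknown) down in half-log steps, 0.25% DMSO final.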",
  "data": [
    {"smiles": "CC(C)n1c(=O)n(C)c2cnc3cc(F)c(-c4ccc(OCCCN5CCCCC5)nc4)cc3c21", "note": "+ COc1cc2c(cc1O)CCNC21CSC2c3c(OC(C)=O)c(C)c4c(c3C(COC1=O)N1C(O)C3Cc5cc(C)c(OC)c(O)c5C(C21)N3C)OCO4", "values": [
      {"measurement": "IC50", "setting": "second compound 30 pM", "value": 7.38, "unit": "µM"},
      {"measurement": "IC50", "setting": "second compound 94.9 pM", "value": "< 0.0316", "unit": "µM"},
      {"measurement": "IC50", "setting": "second compound 0.0003 µM", "value": "< 0.0316", "unit": "µM"},
      {"measurement": "IC50", "setting": "second compound 0.000949 µM", "value": "< 0.0316", "unit": "µM"},
      {"measurement": "IC50", "setting": "second compound 0.003 µM", "value": "< 0.0316", "unit": "µM"},
      {"measurement": "viability, T/C", "setting": "second compound 30 pM, first compound 0.0316 µM", "value": 99.7, "unit": "%"},
      {"measurement": "viability, T/C", "setting": "second compound 30 pM, first compound 0.1 µM", "value": 97.7, "unit": "%"},
      {"measurement": "viability, T/C", "setting": "second compound 30 pM, first compound 0.316 µM", "value": 98, "unit": "%"},
      {"measurement": "viability, T/C", "setting": "second compound 30 pM, first compound 1 µM", "value": 99.4, "unit": "%"},
      {"measurement": "viability, T/C", "setting": "second compound 30 pM, first compound 3.16 µM", "value": 89.7, "unit": "%"},
      {"measurement": "viability, T/C", "setting": "second compound 30 pM, first compound 10 µM", "value": 35.5, "unit": "%"},
      {"measurement": "viability, T/C", "setting": "second compound 94.9 pM, first compound 0.0316 µM", "value": 37.6, "unit": "%"},
      {"measurement": "viability, T/C", "setting": "second compound 94.9 pM, first compound 0.1 µM", "value": 33.4, "unit": "%"},
      {"measurement": "viability, T/C", "setting": "second compound 94.9 pM, first compound 0.316 µM", "value": 43.2, "unit": "%"},
      {"measurement": "viability, T/C", "setting": "second compound 94.9 pM, first compound 1 µM", "value": 52.4, "unit": "%"},
      {"measurement": "viability, T/C", "setting": "second compound 94.9 pM, first compound 3.16 µM", "value": 50, "unit": "%"},
      {"measurement": "viability, T/C", "setting": "second compound 94.9 pM, first compound 10 µM", "value": 21.6, "unit": "%"},
      {"measurement": "viability, T/C", "setting": "second compound 0.0003 µM, first compound 0.0316 µM", "value": 2.89, "unit": "%"},
      {"measurement": "viability, T/C", "setting": "second compound 0.0003 µM, first compound 0.1 µM", "value": 2.78, "unit": "%"},
      {"measurement": "viability, T/C", "setting": "second compound 0.0003 µM, first compound 0.316 µM", "value": 3.15, "unit": "%"},
      {"measurement": "viability, T/C", "setting": "second compound 0.0003 µM, first compound 1 µM", "value": 3.23, "unit": "%"},
      {"measurement": "viability, T/C", "setting": "second compound 0.0003 µM, first compound 3.16 µM", "value": 2.46, "unit": "%"},
      {"measurement": "viability, T/C", "setting": "second compound 0.0003 µM, first compound 10 µM", "value": 0.62, "unit": "%"},
      {"measurement": "viability, T/C", "setting": "second compound 0.000949 µM, first compound 0.0316 µM", "value": 0.98, "unit": "%"},
      {"measurement": "viability, T/C", "setting": "second compound 0.000949 µM, first compound 0.1 µM", "value": 1.01, "unit": "%"},
      {"measurement": "viability, T/C", "setting": "second compound 0.000949 µM, first compound 0.316 µM", "value": 0.98, "unit": "%"},
      {"measurement": "viability, T/C", "setting": "second compound 0.000949 µM, first compound 1 µM", "value": 1.04, "unit": "%"},
      {"measurement": "viability, T/C", "setting": "second compound 0.000949 µM, first compound 3.16 µM", "value": 0.96, "unit": "%"},
      {"measurement": "viability, T/C", "setting": "second compound 0.000949 µM, first compound 10 µM", "value": 0.32, "unit": "%"},
      {"measurement": "viability, T/C", "setting": "second compound 0.003 µM, first compound 0.0316 µM", "value": 0.12, "unit": "%"},
      {"measurement": "viability, T/C", "setting": "second compound 0.003 µM, first compound 0.1 µM", "value": 0.12, "unit": "%"},
      {"measurement": "viability, T/C", "setting": "second compound 0.003 µM, first compound 0.316 µM", "value": 0.12, "unit": "%"},
      {"measurement": "viability, T/C", "setting": "second compound 0.003 µM, first compound 1 µM", "value": 0.13, "unit": "%"},
      {"measurement": "viability, T/C", "setting": "second compound 0.003 µM, first compound 3.16 µM", "value": 0.13, "unit": "%"},
      {"measurement": "viability, T/C", "setting": "second compound 0.003 µM, first compound 10 µM", "value": 0.22, "unit": "%"}
    ]}
  ]
}
